Laboratory results published in publication PMC10786919, “Design-rules for stapled peptides with in vivo activity and their application to Mdm2/X antagonists” (Nature Communications, 2024).
Values after ≈ are worked out from the molar mass of the structure shown. Like-named read-outs stand apart in the source and are kept apart here. Positions of bridges follow the written chain, without caps; N, C: chain ends. Non-standard residues stand in square brackets, D forms with d. Residues, ends and D or L forms follow the SMILES beside them. Lys(N3) = [N-]=[N+]=NCCCC[C@H](N)C(=O)O; R8 = C=CCCCCCC[C@@](C)(N)C(=O)O; Cba = N[C@@H](CC1CCC1)C(=O)O; S5 = C=CCCC[C@](C)(N)C(=O)O; βAla = NCCC(=O)O

Columns and labels:
human Mdm2 1–125 = biological target: T1, human Mdm2 1–125 (Homo sapiens, UniProt Q00987); test: Mdm2 binding by competitive fluorescence anisotropy assay (FP binding); conditions: read-out: FP binding assay KD
T1 construct: GST (N); His6 (internal); TEV cleavage site (ENLYFQG) (internal); made in house; host or cells: BL21 (DE3) Rosetta T1R Escherichia coli
Excerpt: The TEV (tobacco etch virus) cleavage site was changed from ENLYFQS to ENLYFQG to give a fusion protein with the following sequence:
[P] is the protein concentration (Mdm2), [L] is the labeled peptide concentration, r is the anisotropy measured, r0 is the anisotropy of the free peptide, rb is the anisotropy of the Mdm2–FAM-labeled peptide complex, Kd is the dissociation constant, [L]t is the total FAM labeled peptide concentration, and [P]t is the total Mdm2 concentration. […] This value was then used to determine apparent Kd values of the respective competing ligands in subsequent competition assays in fluorescence anisotropy experiments.
The competing molecules were then titrated against the complex of the FAM-labeled peptide and protein. Apparent Kd values were determined by fitting the experimental data to equations shown below:2 r=ro+(rb−ro)×2(d^2−3e)cos(θ/3)−9/3Kd1+2(d^2−3e)cos(θ/3)−d 3 d=Kd1+Kd2+[L]st+[L]t−Pt 4 e=Lt−PtKd1+Lst+PtKd2+Kd1Kd2 5 f=−Kd1Kd2[P]t 6 θ=arcos−2d^3+9de−27f/2(d^2−3e)^3
[L]st and [L]t denote labeled ligand and total unlabeled ligand input concentrations, respectively. Kd2 is the dissociation constant of the interaction between the unlabeled ligand and the protein. In all competition experiments, it is assumed that [P]t > [L]st, otherwise considerable amounts of free labeled ligand would always be present and would interfere with measurements. […] The FAM-labeled peptide was dissolved in dimethyl sulfoxide (DMSO) at 1 mM and diluted into experimental buffer. Readings were carried out with an Envision Multilabel Reader (PerkinElmer). […] Curve-fitting was carried out using Prism 4.0 (GraphPad). […] Negative control titrations of the ligands under investigation were also carried out with the fluorescently labeled peptide (in the absence of Mdm2) to ensure no interactions were occurring between the ligands and the FAM-labeled peptide. […] Measurements were taken a minimum of three times (biological replicates) and values are reported as geometric means of the replicates.

[1] = system: Jump-In T-REx CHO-K1 BLA cells; test: cells; type: cell-based
[2] = Lactate dehydrogenase (LDH) release assay; type: cell-based
How it was run: (§1)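 A p53 β-lactamase reporter HCT116 line, 8000 cells per well, is exposed to test compounds at 0.5% final DMSO and scored for LDH leakage.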

[3] = Experimental LogD (partition coefficient); conditions: for logD: not stated, Partition Coeff LogD
[4] = system: cells transiently transfected with the NanoLuc-HaloTag vector; test: Nanoclick permeability assay; conditions: 4Hr
How it was run: (§2)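 Azido-peptide permeability was read as loss of NanoBRET signal (donor 450 nm, acceptor 610 nm) after adding NanoBret618-azide at 10 μM final.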

in vitro = conditions: Nanoclick permeability assay EC50
How it was run: as §2

[5] = system: p53 responsive β-lactamase reporter in HCT116 cells; test: cells; type: cell-based
How it was run: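 HCT116 cells stably carrying a p53-responsive β-lactamase reporter, seeded at 8000 cells/well, with 0.5% DMSO final. Reporter activity read by ToxBLAzer Dual Screen. Values are geometric means of at least three biological replicates.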

[6] = Solubility assay (kinetic solubility, PBS pH 7); type: physicochemical; conditions: pH 7, PBS; for solubility kinetic: pH 7, aqueous buffer, kinetic from dmso stock, read-out: Solubility
How it was run: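 Next, measure peak areas of sample and standard. Finally, multiply their ratio by the standard concentration to obtain solubility (µM).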

[7] = Circular dichroism (CD) helicity; type: physicochemical
Protocol: A total of 5 µL of the 10 mM stock peptide was mixed with 45 µL of 100% methanol, and dried for 2 h in the SpeedVac concentrator (Thermo Scientific). The dried peptide was reconstituted in a buffer (1 mM Hepes pH 7.4 and 5% methanol) to a concentration of 1 mM. The peptide sample was placed in a quartz cuvette with a path length of 0.2 cm. The peptide concentration was determined by the absorbance of the peptide at […]. The CD spectrum was recorded from 300 to 190 nm using the Chirascan-plus qCD machine (Applied Photophysics, Surrey, UK), at 25 °C. All experiments were done in duplicates. The CD spectrum was converted to mean residue ellipticity before deconvolution and estimation of the secondary structure components of the peptide using the CDNN software (distributed by Applied Photophysics). Measurements were taken at least twice and were reported as arithmetic means.

HCT116 cells = test: Lactate dehydrogenase (LDH) release assay; type: cell-based
How it was run: as §1

EPSA = type: physicochemical
[8] = 0% FBS 4Hr, read-out: TETCHO: Counterscreen EC50
[9] = 0% FBS 4Hr, read-out: p53 reporter assay EC50
[10] = 10% FBS 16Hr, read-out: TETCHO: Counterscreen EC50
[11] = 0% FBS 4Hr, read-out: p53 reporter assay: EC50
[12] = 10% FBS 4Hr, read-out: TETCHO: Counterscreen EC50
[13] = 10% FBS 4Hr, read-out: p53 reporter assay: EC50
[14] = 10% FBS 16Hr, read-out: p53 reporter assay: EC50

T1 sequence (Q00987 with tags, fused parts or gaps): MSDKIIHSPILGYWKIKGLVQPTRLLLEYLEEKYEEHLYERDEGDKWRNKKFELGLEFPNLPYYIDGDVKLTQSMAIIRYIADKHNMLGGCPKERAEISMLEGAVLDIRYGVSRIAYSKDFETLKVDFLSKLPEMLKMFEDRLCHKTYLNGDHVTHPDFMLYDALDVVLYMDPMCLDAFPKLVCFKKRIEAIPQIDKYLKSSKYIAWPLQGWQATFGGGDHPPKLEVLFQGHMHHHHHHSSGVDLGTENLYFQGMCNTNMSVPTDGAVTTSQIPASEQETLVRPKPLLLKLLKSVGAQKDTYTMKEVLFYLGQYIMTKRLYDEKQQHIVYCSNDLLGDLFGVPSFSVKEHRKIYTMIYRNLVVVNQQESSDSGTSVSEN

SMILES	Kd (human Mdm2 1–125) [µM]	TETCHO: Counterscreen % Effect ([1]; 0% FBS 4Hr) [%]	EC50 [1, 8] [µM]	logD [3]	Nanoclick permeability assay % Effect [4] [%]	cell entry EC50 (in vitro) [µM]	EC50 [5, 9] [µM]	solubility kinetic [6] [µM]	EC50 [1, 10] [µM]	CD % Helicity [7] [%]	EC50 [5, 11] [µM]	TETCHO: Counterscreen % Effect ([1]; 10% FBS 4Hr) [%]	EC50 [1, 12] [µM]	TETCHO: Counterscreen % Effect ([1]; 10% FBS 16Hr) [%]	EC50 (HCT116 cells) [µM]	p53 reporter assay: % Effect ([5]; 0% FBS 4Hr) [%]	p53 reporter assay: % Effect ([5]; 10% FBS 4Hr) [%]	EC50 [5, 13] [µM]	p53 reporter assay: % Effect ([5]; 10% FBS 16Hr) [%]	EC50 [5, 14] [µM]	also measured
CC(C)C[C@H](NC(=O)CCNC(=O)[C@H](CCCCN=[N+]=[N-])NC(=O)CNC(=O)[C@H](CC(=O)O)NC(=O)[C@H](CC(C)C)NC(=O)[C@H](CCCCN)NC(=O)[C@@H](NC(=O)[C@H](CCCNC(=N)N)NC(=O)[C@H](CCCCN)NC(=O)[C@H](C)NC(=O)[C@H](C)NC(=O)[C@@H]1CCCN1)C(C)C)C(=O)N[C@H](C(=O)N[C@@H](Cc1ccccc1)C(=O)N[C@]1(C)CCCCCCC=CCCC[C@@](C)(C(=O)N[C@@H](CO)C(=O)N[C@@H](C)C(=O)N[C@@H](C)C(N)=O)NC(=O)[C@H](CC2CCC2)NC(=O)[C@H](CCC(N)=O)NC(=O)[C@H](C)NC(=O)[C@H](Cc2c[nH]c3ccccc23)NC(=O)[C@H](Cc2ccc(O)cc2)NC(=O)[C@H](CCC(=O)O)NC1=O)[C@@H](C)O [MP-879] (H-PAAKRVKLDG[Lys(N3)][βAla]LTF[R8]EYWAQ[Cba][S5]SAA-NH2; staple 16-23)	0.0386	42.86	35.8	2.38	134.8	0.555	2.4	162 (≈ 480 µg/mL)	–	–	–	–	–	–	–	–	–	–	–	–	TETCHO: Counterscreen % Effect ([1]; 0% FBS 16Hr): 28.78%; EC50 ([1]; 0% FBS 16Hr, read-out: TETCHO: Counterscreen EC50): > 50 µM; EC50 ([2]; LDH: Cytotoxicity assay EC50): > 50 µM; EC50 ([5]; 0% FBS 16Hr, read-out: p53 reporter assay EC50): 1.14 µM
CC(=O)N[C@@H](CC(C)C)C(=O)N[C@H](C(=O)N[C@@H](Cc1ccccc1)C(=O)N[C@]1(C)CCCCCCC=CCCC[C@@](C)(C(=O)N[C@@H](C)C(=O)N[C@@H](C)C(=O)N[C@@H](C)C(=O)N[C@@H](C)C(=O)N[C@@H](C)C(=O)N[C@@H](C)C(N)=O)NC(=O)[C@H](CC(C)C)NC(=O)[C@H](CCC(N)=O)NC(=O)[C@H](C)NC(=O)[C@H](Cc2c[nH]c3ccccc23)NC(=O)[C@H](Cc2ccc(O)cc2)NC(=O)[C@H](CCC(=O)O)NC1=O)[C@@H](C)O [MP-688] (Ac-LTF[R8]EYWAQL[S5]AAAAAA-NH2; staple 4-11)	–	–	> 50.4	–	–	–	0.157	–	> 50.4	49.8	–	–	–	–	–	–	–	–	–	–	EC50 ([2]; 0% FBS 4Hr, read-out: LDH: Cytotoxicity assay EC50): > 50.7 µM; EC50 ([2]; 10% FBS 16Hr, read-out: LDH: Cytotoxicity assay EC50): > 50.7 µM; Aqueous solution helicity ([7]; circular dichroism): 49.8%; EC50 ([5]; 10% FBS 16Hr, read-out: p53 reporter assay EC50): 1.35 µM; EC50 ([5]; read-out: Cell EC50 (4 hr, 0% FBS), p53 reporter assay, 4 hr, 0% FBS): 0.16 µM; EC50 ([5]; read-out: Cell EC50 (16 hr, 10% FBS), p53 reporter assay, 16 hr, 10% FBS): 1.3 µM
CC(=O)N[C@@H](CC(C)C)C(=O)N[C@H](C(=O)N[C@@H](Cc1ccccc1)C(=O)N[C@]1(C)CCCCCCC=CCCC[C@@](C)(C(=O)N[C@@H](CO)C(=O)N[C@@H](C)C(=O)N[C@@H](C)C(N)=O)NC(=O)[C@H](CC2CCC2)NC(=O)[C@H](Cc2c[nH]cn2)NC(=O)[C@H](C)NC(=O)[C@H](Cc2c[nH]c3ccccc23)NC(=O)[C@H](Cc2ccc(O)cc2)NC(=O)[C@H](CCC(=O)O)NC1=O)[C@@H](C)O [MP-501, ATSP-7041 (Q8H)]	–	216	18.9	–	–	–	–	–	–	29.1	2.5	–	–	–	–	–	–	–	–	–	TETCHO Counterscreen % Effect ([1]; 4 hours, 0% serum, efficacy at 50 μM relative to tetracycline control): 216%; EC50 ([1]; 4 hours, 0% serum, read-out: TETCHO Counterscreen EC50): 18.9 µM; EC50 ([2]; 0% FBS 4Hr, read-out: LDH: Cytotoxicity assay: EC50): > 50 µM; LDH: Cytotoxicity assay: % Effect (HCT116 cells; 0% FBS 4Hr): 4.045%; EC50 ([5]; 0% FBS 16Hr, read-out: p53 reporter assay: EC50): 28.6 µM
CC(=O)N[C@@H](CCCCN)C(=O)NCCCCCC(=O)N[C@H](C(=O)N[C@@H](CO)C(=O)N[C@@H](Cc1ccccc1)C(=O)N[C@]1(C)CCCCCCC=CCCC[C@@](C)(C(=O)N[C@@H](CCC(=O)O)C(=O)N[C@@H](CC(N)=O)C(=O)N[C@@H](Cc2ccccc2)C(N)=O)NC(=O)[C@H](CC(C)C)NC(=O)[C@H](CC(C)C)NC(=O)[C@H](C)NC(=O)[C@H](Cc2c[nH]c3ccccc23)NC(=O)[C@H](Cc2ccc(O)cc2)NC(=O)[C@H](CCC(=O)O)NC1=O)[C@@H](C)O [MP-82094]	–	52.98	45.8	–	69.87	–	–	–	7.15	–	1.55	49.08	20	82.5	50.5	109.5	125.5	3.92	78.69	16.1	EPSA (EPSA): Poorly Behaved
CC(=O)N[C@@H](CCCCN)C(=O)NCCCCCC(=O)N[C@H](C(=O)N[C@@H](CO)C(=O)N[C@@H](Cc1ccccc1)C(=O)N[C@]1(C)CCCCCCC=CCCC[C@@](C)(C(N)=O)NC(=O)[C@H](CC(C)C)NC(=O)[C@H](CC(C)C)NC(=O)[C@H](C)NC(=O)[C@H](Cc2c[nH]c3ccccc23)NC(=O)[C@H](Cc2ccc(O)cc2)NC(=O)[C@H](CCC(=O)O)NC1=O)[C@@H](C)O [MP-716]	0.011	43.21	> 50.4	–	9.756	> 10	–	–	> 50.4	–	14.1	45.82	> 50.4	13.83	–	93.75	161.5	15.9	18.31	> 50.4	EC50 ([2]; LDH: Cytotoxicity assay: EC50): > 50.7 µM; Partition Coeff LogD [3]: Poorly Behaved; Solubility [6]: Poorly Behaved
CC(=O)N[C@H](C(=O)N[C@@H](CO)C(=O)N[C@@H](Cc1ccccc1)C(=O)N[C@]1(C)CCCCCCC=CCCC[C@@](C)(C(N)=O)NC(=O)[C@H](CC(C)C)NC(=O)[C@H](CC(C)C)NC(=O)[C@H](C)NC(=O)[C@H](Cc2c[nH]c3ccccc23)NC(=O)[C@H](Cc2ccc(O)cc2)NC(=O)[C@H](CCC(=O)O)NC1=O)[C@@H](C)O [MP-090]	–	137.4	21.2	2.69	42.09	> 10	–	77 (≈ 113 µg/mL)	32.9	–	6.5	106.1	31.5	108.5	50.5	110.7	88.51	26.2	4.432	> 50.4	EC50 ([2]; LDH: Cytotoxicity assay: EC50): > 50.7 µM; EPSA (EPSA; EPSA): 201 A^2
